Results as given in the NIST ThermoML archive (doi:10.1016/j.jct.2013.11.022).
Numbers after ± are expanded uncertainties.

Test: mn = molality of the nth substance listed, in mol/kg
Settings: 101.33 kPa, Liquid; for viscosity: Capillary tube (Ostwald / Ubbelohde) method; for speed of sound: Sing-around technique in a fixed-path interferometer; for mass density: Vibrating tube method

CCCCCCCCCCCCOS(=O)(=O)[O-].[Na+] [sodium dodecyl sulfate] + O
Settings	mass density [kg/m3]	speed of sound [m/s]	viscosity [mPa·s]
293.15 K, m1 = 0.0001	998.198 ± 0.11	1482.9 ± 1.2	1.014 ± 0.021
293.15 K, m1 = 0.0003	998.209 ± 0.11	1482.9 ± 1.2	1.014 ± 0.021
293.15 K, m1 = 0.0005	998.221 ± 0.11	1483 ± 1.2	1.016 ± 0.021
293.15 K, m1 = 0.002	998.31 ± 0.11	1483.2 ± 1.2	1.02 ± 0.021
293.15 K, m1 = 0.004	998.425 ± 0.11	1483.5 ± 1.2	1.02 ± 0.021
293.15 K, m1 = 0.006	998.538 ± 0.11	1483.7 ± 1.2	1.024 ± 0.021
293.15 K, m1 = 0.008	998.647 ± 0.11	1484 ± 1.2	1.026 ± 0.021
293.15 K, m1 = 0.01	998.75 ± 0.11	1484.2 ± 1.2	1.027 ± 0.022
293.15 K, m1 = 0.012	998.851 ± 0.11	1484.5 ± 1.2	1.029 ± 0.022
293.15 K, m1 = 0.014	998.949 ± 0.11	1484.6 ± 1.2	1.034 ± 0.022
293.15 K, m1 = 0.016	999.048 ± 0.11	1484.8 ± 1.2	1.036 ± 0.022
293.15 K, m1 = 0.018	999.145 ± 0.11	1484.9 ± 1.2	1.04 ± 0.022
293.15 K, m1 = 0.02	999.237 ± 0.11	1485 ± 1.2	1.042 ± 0.022
293.15 K, m1 = 0.022	999.338 ± 0.11	1485.2 ± 1.2	1.047 ± 0.022
293.15 K, m1 = 0.024	999.426 ± 0.11	1485.3 ± 1.2	1.052 ± 0.022
298.15 K, m1 = 0.0001	997.034 ± 0.14	1497 ± 1.4	0.895 ± 0.02
298.15 K, m1 = 0.0003	997.045 ± 0.11	1497 ± 1.2	0.8952 ± 0.019
298.15 K, m1 = 0.0005	997.057 ± 0.13	1497.1 ± 1.4	0.8955 ± 0.021
298.15 K, m1 = 0.002	997.144 ± 0.11	1497.3 ± 1.2	0.8963 ± 0.019
298.15 K, m1 = 0.004	997.255 ± 0.11	1497.6 ± 1.2	0.8969 ± 0.019
298.15 K, m1 = 0.006	997.365 ± 0.11	1497.8 ± 1.2	0.8976 ± 0.019
298.15 K, m1 = 0.008	997.472 ± 0.11	1498.1 ± 1.2	0.8981 ± 0.019
298.15 K, m1 = 0.01	997.569 ± 0.11	1498.4 ± 1.2	0.899 ± 0.019
298.15 K, m1 = 0.012	997.67 ± 0.11	1498.6 ± 1.2	0.9008 ± 0.019
298.15 K, m1 = 0.014	997.768 ± 0.11	1498.7 ± 1.2	0.9073 ± 0.019
298.15 K, m1 = 0.016	997.867 ± 0.11	1498.9 ± 1.2	0.9091 ± 0.019
298.15 K, m1 = 0.018	997.957 ± 0.11	1499 ± 1.2	0.9114 ± 0.019
298.15 K, m1 = 0.02	998.048 ± 0.11	1499.1 ± 1.2	0.9136 ± 0.019
298.15 K, m1 = 0.022	998.142 ± 0.11	1499.3 ± 1.2	0.9191 ± 0.019
298.15 K, m1 = 0.024	998.232 ± 0.11	1499.4 ± 1.2	0.9211 ± 0.019
303.15 K, m1 = 0.0001	995.633 ± 0.14	1509.3 ± 1.4	0.801 ± 0.017
303.15 K, m1 = 0.0003	995.644 ± 0.11	1509.4 ± 1.2	0.8015 ± 0.017
303.15 K, m1 = 0.0005	995.655 ± 0.12	1509.4 ± 1.3	0.8018 ± 0.018
303.15 K, m1 = 0.002	995.74 ± 0.11	1509.6 ± 1.2	0.8024 ± 0.017
303.15 K, m1 = 0.004	995.848 ± 0.11	1509.9 ± 1.2	0.8028 ± 0.017
303.15 K, m1 = 0.006	995.955 ± 0.11	1510.2 ± 1.2	0.8032 ± 0.017
303.15 K, m1 = 0.008	996.058 ± 0.11	1510.4 ± 1.2	0.8037 ± 0.017
303.15 K, m1 = 0.01	996.155 ± 0.11	1510.7 ± 1.2	0.8039 ± 0.017
303.15 K, m1 = 0.012	996.252 ± 0.11	1510.8 ± 1.2	0.8054 ± 0.017
303.15 K, m1 = 0.014	996.348 ± 0.11	1511 ± 1.2	0.8085 ± 0.017
303.15 K, m1 = 0.016	996.441 ± 0.11	1511.2 ± 1.2	0.8114 ± 0.017
303.15 K, m1 = 0.018	996.536 ± 0.11	1511.3 ± 1.2	0.8135 ± 0.017
303.15 K, m1 = 0.02	996.624 ± 0.11	1511.4 ± 1.2	0.8161 ± 0.017
303.15 K, m1 = 0.022	996.718 ± 0.11	1511.6 ± 1.2	0.8193 ± 0.017
303.15 K, m1 = 0.024	996.807 ± 0.11	1511.7 ± 1.2	0.8206 ± 0.017
308.15 K, m1 = 0.0001	994.016 ± 0.13	1520 ± 1.4	0.7228 ± 0.016
308.15 K, m1 = 0.0003	994.026 ± 0.11	1520 ± 1.2	0.7232 ± 0.015
308.15 K, m1 = 0.0005	994.037 ± 0.12	1520 ± 1.3	0.7236 ± 0.016
308.15 K, m1 = 0.002	994.12 ± 0.11	1520.2 ± 1.2	0.7241 ± 0.015
308.15 K, m1 = 0.004	994.224 ± 0.11	1520.5 ± 1.2	0.7245 ± 0.015
308.15 K, m1 = 0.006	994.327 ± 0.11	1520.8 ± 1.2	0.725 ± 0.015
308.15 K, m1 = 0.008	994.429 ± 0.11	1521 ± 1.2	0.7253 ± 0.015
308.15 K, m1 = 0.01	994.524 ± 0.11	1521.3 ± 1.2	0.7259 ± 0.015
308.15 K, m1 = 0.012	994.619 ± 0.11	1521.5 ± 1.2	0.7264 ± 0.015
308.15 K, m1 = 0.014	994.715 ± 0.11	1521.6 ± 1.2	0.7279 ± 0.015
308.15 K, m1 = 0.016	994.806 ± 0.11	1521.8 ± 1.2	0.73 ± 0.015
308.15 K, m1 = 0.018	994.898 ± 0.11	1521.9 ± 1.2	0.7345 ± 0.015
308.15 K, m1 = 0.02	994.988 ± 0.11	1522 ± 1.2	0.7388 ± 0.015
308.15 K, m1 = 0.022	995.076 ± 0.11	1522.2 ± 1.2	0.7422 ± 0.016
308.15 K, m1 = 0.024	995.164 ± 0.11	1522.3 ± 1.2	0.7465 ± 0.016
313.15 K, m1 = 0.0001	992.2 ± 0.11	1529 ± 1.2	0.6564 ± 0.014
313.15 K, m1 = 0.0003	992.21 ± 0.11	1529 ± 1.2	0.6566 ± 0.014
313.15 K, m1 = 0.0005	992.22 ± 0.11	1529.1 ± 1.2	0.657 ± 0.014
313.15 K, m1 = 0.002	992.299 ± 0.11	1529.3 ± 1.2	0.6576 ± 0.014
313.15 K, m1 = 0.004	992.402 ± 0.11	1529.5 ± 1.2	0.6585 ± 0.014
313.15 K, m1 = 0.006	992.5 ± 0.11	1529.8 ± 1.2	0.6599 ± 0.014
313.15 K, m1 = 0.008	992.601 ± 0.11	1530.1 ± 1.2	0.6616 ± 0.014
313.15 K, m1 = 0.01	992.696 ± 0.11	1530.3 ± 1.2	0.6628 ± 0.014
313.15 K, m1 = 0.012	992.789 ± 0.11	1530.5 ± 1.2	0.6646 ± 0.014
313.15 K, m1 = 0.014	992.884 ± 0.11	1530.7 ± 1.2	0.6667 ± 0.014
313.15 K, m1 = 0.016	992.975 ± 0.11	1530.8 ± 1.2	0.6689 ± 0.014
313.15 K, m1 = 0.018	993.061 ± 0.11	1530.9 ± 1.2	0.6718 ± 0.014
313.15 K, m1 = 0.02	993.153 ± 0.11	1531.1 ± 1.2	0.6747 ± 0.014
313.15 K, m1 = 0.022	993.239 ± 0.11	1531.2 ± 1.2	0.6775 ± 0.014
313.15 K, m1 = 0.024	993.323 ± 0.11	1531.3 ± 1.2	0.6794 ± 0.014
